Test results: paper PMC8595511 (Experimental eye research, 2021)

Key:
[1] = target: T1, recombinant mouse retbindin (mRTBN, RTBDN) (Mus musculus, UniProt Q8QZY4); experiment: bio-layer interferometry; assay type: binding; settings: PBS
T1 sequence (Q8QZY4 32-247): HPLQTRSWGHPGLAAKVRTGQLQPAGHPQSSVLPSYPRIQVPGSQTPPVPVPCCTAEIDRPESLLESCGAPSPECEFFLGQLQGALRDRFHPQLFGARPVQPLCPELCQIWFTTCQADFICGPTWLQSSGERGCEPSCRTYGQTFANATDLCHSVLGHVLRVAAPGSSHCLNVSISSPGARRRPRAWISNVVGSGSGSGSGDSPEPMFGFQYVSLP

[2] = target: Bovine Interphotoreceptor Retinoid Binding Protein (bIRBP) (Bos taurus, UniProt P12661); experiment: bio-layer interferometry; settings: PBS; ligand predissolved in DMSO, 1-10 μM
Chain of Bovine Interphotoreceptor Retinoid Binding Protein (bIRBP) (P12661 23-1286): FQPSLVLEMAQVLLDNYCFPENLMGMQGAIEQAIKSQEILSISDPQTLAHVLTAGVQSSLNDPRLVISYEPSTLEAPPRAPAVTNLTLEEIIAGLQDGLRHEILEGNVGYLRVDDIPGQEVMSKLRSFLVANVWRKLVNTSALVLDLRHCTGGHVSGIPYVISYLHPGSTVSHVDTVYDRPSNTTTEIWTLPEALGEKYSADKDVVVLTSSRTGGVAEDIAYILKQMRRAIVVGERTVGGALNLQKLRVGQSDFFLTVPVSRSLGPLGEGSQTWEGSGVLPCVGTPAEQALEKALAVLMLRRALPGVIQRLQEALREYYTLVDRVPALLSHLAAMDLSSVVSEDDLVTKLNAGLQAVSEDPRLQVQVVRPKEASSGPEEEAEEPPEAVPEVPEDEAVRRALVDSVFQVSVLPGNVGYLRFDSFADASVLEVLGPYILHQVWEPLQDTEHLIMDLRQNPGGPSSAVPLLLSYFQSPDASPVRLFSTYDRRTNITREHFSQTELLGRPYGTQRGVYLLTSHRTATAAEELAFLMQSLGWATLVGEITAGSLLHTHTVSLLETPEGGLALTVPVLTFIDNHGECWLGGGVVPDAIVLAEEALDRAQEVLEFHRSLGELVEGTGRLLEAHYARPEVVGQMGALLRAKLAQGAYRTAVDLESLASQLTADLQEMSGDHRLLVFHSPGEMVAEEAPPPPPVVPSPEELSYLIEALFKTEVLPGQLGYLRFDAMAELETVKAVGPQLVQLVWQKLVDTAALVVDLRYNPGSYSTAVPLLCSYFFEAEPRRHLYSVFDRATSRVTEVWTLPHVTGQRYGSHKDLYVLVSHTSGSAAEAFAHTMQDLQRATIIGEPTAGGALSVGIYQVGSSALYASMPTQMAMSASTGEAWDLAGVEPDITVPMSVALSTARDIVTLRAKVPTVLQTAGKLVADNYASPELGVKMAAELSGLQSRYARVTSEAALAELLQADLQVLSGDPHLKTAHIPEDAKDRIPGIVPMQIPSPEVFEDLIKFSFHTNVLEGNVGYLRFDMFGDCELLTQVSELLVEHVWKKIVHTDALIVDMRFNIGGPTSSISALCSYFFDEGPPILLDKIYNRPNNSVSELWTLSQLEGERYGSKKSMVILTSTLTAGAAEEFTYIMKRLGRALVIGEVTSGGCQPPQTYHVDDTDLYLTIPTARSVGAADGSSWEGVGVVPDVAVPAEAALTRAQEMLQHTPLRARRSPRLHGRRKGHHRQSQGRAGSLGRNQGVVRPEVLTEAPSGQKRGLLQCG

Row | SMILES | Dissociation constant [1] | Dissociation constant ([1]; 1-100 μM) | further results
1 | CC1=C(/C=C/C(C)=C\C=C\C(C)=C\C=O)C(C)(C)CCC1 [9-cis retinal] | Dissociation constants for retinoids, flavins and fluorescein (as a control) on retbindin |  | 
2 | Cc1cc2nc3c(=O)[nH]c(=O)nc-3n(C[C@H](O)[C@H](O)[C@H](O)COP(=O)(O)O)c2cc1C [FMN] |  | Dissociation constants for retinoids, flavins and fluorescein (as a control) on retbindin | 
3 | CC1=C(/C=C/C(C)=C/C=C/C(C)=C/C=O)C(C)(C)CCC1 [all trans retinal] | Dissociation constants for retinoids, flavins and fluorescein (as a control) on retbindin |  | 
4 | CC1=C(/C=C/C(C)=C/C=C\C(C)=C\C(=O)O)C(C)(C)CCC1 [11-cis retinoic acid] | Dissociation constants for retinoids, flavins and fluorescein (as a control) on retbindin |  | 
5 | CC1=C(/C=C/C(C)=C\C=C\C(C)=C\C(=O)O)C(C)(C)CCC1 [9-cis retinoic acid] | Dissociation constants for retinoids, flavins and fluorescein (as a control) on retbindin |  | 
6 | CC1=C(/C=C/C(C)=C/C=C\C(C)=C\C=O)C(C)(C)CCC1 [11-cis retinal] |  |  | Dissociation constant [2]: very similar to the well characterized 11-cis retinal transport protein IRBP; Dissociation constant ([1]; ligand predissolved in DMSO, 1-10 μM): the protein showed significant affinity for several retinoids, particularly for 11-cis retinal
7 | O=C1OC2(c3ccc(O)cc3Oc3cc(O)ccc32)c2ccccc21 [fluorescein, reference compound] |  | Dissociation constants for retinoids, flavins and fluorescein (as a control) on retbindin | 
8 | Cc1cc2nc3c(=O)[nH]c(=O)nc-3n(C[C@H](O)[C@H](O)[C@H](O)CO)c2cc1C [riboflavin] |  | Dissociation constants for retinoids, flavins and fluorescein (as a control) on retbindin | 
